Experimental data as given in patent US20210353595A1, “USE OF MELATONIN IN PREPARATION OF MEDICAMENT FOR INHIBITING AND/OR KILLING BACTERIUM” (priority 2020, published 2021).
≈ marks a conversion by molar mass, not a printed value.

What was measured:
[1] = test system: Pasteurella multocida; experiment: Non-targeted metabonomic analysis; format: cell-based; conditions: 1 mg/mL of MT, 12 hours
Procedure: 1 mL of fresh Pasteurella multocida (P. multocida) at the logarithmic growth stage was added into 100 mL of fresh Martin liquid medium containing 1 mg/mL of MT, and MT-free DMSO was used as a solvent control group. All cultures were incubated with shaking at 37° C. and 220 rpm for 12 hours. The bacterial samples were centrifuged at a speed of 3000 rpm/min at 4° C. for 10 minutes, the supernatant was removed, and the bacterial cells were collected and washed with PBS for 3 times. The bacterial cells were rapidly frozen in liquid nitrogen, transferred to dry ice, and sent to Shanghai Baiqu Biomedical Technology Co., Ltd. for metabolomic analysis (Q Exactive Orbitrap, Thermo Fisher Scientific, USA). Through the non-targeted metabonomic study of Pasteurella multocida cells before and after melatonin treatment, it was clarified which metabolic pathway of the bacteria is affected by melatonin in exerting the antibacterial activity of melatonin.

[2] = test system: citrate synthase in Pneumococcus; experiment: Citrate synthase activity of bacteria after treatment; format: cell-based, Diplococcus pneumoniae; conditions: MT 1-3 mg/mL, 12 h, also with exogenous citric acid, FIG. 28
Procedure: Further, 1 mL of Klebsiella pneumoniae, Pseudomonas aeruginosa, Diplococcus pneumoniae and Streptococcus pneumoniae at the logarithmic growth stage was added into 100 mL of fresh and sterile Martin broth liquid medium containing different concentrations of melatonin and citric acid (MT-1 mg/mL, MT-2 mg/mL, MT-3 mg/mL, CA-1 mg/mL, CA-2 mg/mL, CA-3 mg/mL, MT-1 mg/mL-CA-1 mg/mL, MT-2 mg/mL-CA-2 mg/mL, MT-3 mg/mL-CA-3 mg/mL) added was. Melatonin-free DMSO was used as the solvent control group, and the bacterial cells were cultured in a constant-temperature shaker at 37° C. and 220 rpm for 12 h. Thereafter, 1 mL of the bacterial solution was pipetted and centrifuged at 3000 r/min for 10 minutes. The bacterial cells were then collected and determined for citrate synthase activity according to the protocol of the instructions for the kit. Each experiment was repeated three times, and each group was set in triplicate.

[3] = test system: Mannheimia haemolytica; experiment: MIC/MBC bacteriostatic and bactericidal test; format: cell-based
Procedure: (§1) 1 mL of a fresh suspension of bacteria (1×10^9 CFU) at the logarithmic growth stage was added into 100 mL containing different concentrations (50 mg/mL, 25 mg/mL, 12.5 mg/mL, 6.25 mg/mL, 3.125 mg/mL, 1.5625 mg/mL, 0.78125 mg/mL, 0.390625 mg/mL) of melatonin. A melatonin (MT)-free solution diluted with DMSO was used as a control group. The samples were shaken at 37° C. and a rotation speed of 120 r/min with protection from light for 12 hours, and then subjected to detection of the minimal inhibitory concentration (MIC) of MT on bacteria. Then, 0.1 mL of the aforementioned transparent bacterial solution was pipetted onto a sterilized agar plate of a specific culture medium and coated evenly, incubated in an incubator at 37° C. for 24 hours, and then subjected to detection of the minimum bactericidal concentration (MBC) of MT on pathogens, wherein the minimum concentration of MT at which no bacterium grew was the MBC of MT on pathogens. Each experiment was carried out for 3 times, and each group was set in triplicate.

[4] = test system: Klebsiella pneumoniae; experiment: MIC/MBC bacteriostatic and bactericidal test; format: cell-based
Procedure: as §1

[5] = test system: Lactobacillus johnsonii; experiment: MIC/MBC bacteriostatic and bactericidal test; format: cell-based
Procedure: as §1

[6] = test system: Pseudomonas aeruginosa; experiment: MIC/MBC bacteriostatic and bactericidal test; format: cell-based
Procedure: as §1

[7] = test system: Staphylococcus aureus (ATCC25923); experiment: MIC/MBC bacteriostatic and bactericidal test; format: cell-based
Procedure: as §1

[8] = test system: Bovine meningitic Escherichia coli; experiment: MIC/MBC bacteriostatic and bactericidal test; format: cell-based
Procedure: as §1

[9] = test system: Acinetobacter baumannii; experiment: MIC/MBC bacteriostatic and bactericidal test; format: cell-based
Procedure: as §1

[10] = test system: Streptococcus pneumoniae; experiment: MIC/MBC bacteriostatic and bactericidal test; format: cell-based
Procedure: as §1

[11] = test system: Enterobacter sakazakii; experiment: MIC/MBC bacteriostatic and bactericidal test; format: cell-based; conditions: Cronobacter sakazakii
Procedure: as §1

[12] = test system: Bacillus cereus; experiment: MIC/MBC bacteriostatic and bactericidal test; format: cell-based
Procedure: as §1

[13] = test system: Escherichia coli C83902 (ATCC72864); experiment: MIC/MBC bacteriostatic and bactericidal test; format: cell-based
Procedure: as §1

[14] = test system: Pasteurella multocida; experiment: MIC/MBC bacteriostatic and bactericidal test; format: cell-based
Procedure: as §1

[15] = test system: Listeria monocytogenes (ATCC53005); experiment: MIC/MBC bacteriostatic and bactericidal test; format: cell-based
Procedure: as §1

[16] = test system: Pneumococcus; experiment: MIC/MBC bacteriostatic and bactericidal test; format: cell-based
Procedure: as §1

[17] = test system: Salmonella enteritidis (ATCC85090); experiment: MIC/MBC bacteriostatic and bactericidal test; format: cell-based; conditions: Salmonella enterica
Procedure: as §1

[18] = test system: Avianpathogenic Escherichia coli; experiment: MIC/MBC bacteriostatic and bactericidal test; format: cell-based; conditions: 12 h
Procedure: as §1

[19] = test system: Pasteurella multocida; experiment: Killing bacteria by melatonin above MBC (OD600, living bacteria count); format: cell-based; conditions: for time to kill all bacteria: FIGS. 2 and 3
Procedure: Into 100 mL of fresh and sterile Martin broth medium, 1 mL of Pasteurella multocida (1×10^9 CFU) at the logarithmic growth stage was added. The bacteria were cultured in a constant-temperature shaker under conditions of 37° C. and 220 rpm for 8 hours. […] After the addition of MT, the bacterial culture was continuously measured for OD600 every 20 minutes to depict a growth curve under the action of melatonin at a concentration higher than the MBC. At the same time, 100 μL of the bacterial culture was evenly coated on a Martin agar plate, and incubated at 37° C. for 24 h so as to calculate the number of living bacteria for bacterial counting.

In the case of `COc1ccc2[nH]cc(CCNC(C)=O)c2c1` [melatonin, N-acetyl-5-methoxytryptamine], the “acetyl coenzyme A level in bacterial cells” value [1] is reported as “significantly up-regulated”, the “citric acid level in bacterial cells” value [1] is reported as “significantly down-regulated” and the “pyruvic acid level in bacterial cells” value [1] is reported as “significantly up-regulated”. The “enzyme activity of citrate synthase” value [2] was “not influenced”, the MIC ([3]; 37° C., 12 hours) was 12.5 mg/mL (≈ 53.8 mM) and the MBC ([3]; agar plate 37° C., 24 hours) was 25 mg/mL (≈ 108 mM). For the same molecule, the MIC ([4]; 37° C., 12 hours) was 3.12 mg/mL (≈ 13.5 mM), the MBC ([4]; agar plate 37° C., 24 hours) was 6.25 mg/mL (≈ 26.9 mM) and the MIC ([5]; 37° C., 12 hours) was 25 mg/mL (≈ 108 mM). It also gave an MBC ([5]; agar plate 37° C., 24 hours) of 50 mg/mL (≈ 215 mM), an MIC ([6]; 37° C., 12 hours) of 12.5 mg/mL (≈ 53.8 mM) and an MBC ([6]; agar plate 37° C., 24 hours) of 12.5 mg/mL (≈ 53.8 mM). For the same molecule, the MIC ([7]; 37° C., 12 hours) was 50 mg/mL (≈ 215 mM), the MBC ([7]; agar plate 37° C., 24 hours) was 50 mg/mL (≈ 215 mM) and the MIC ([8]; 37° C., 12 hours) was 12.5 mg/mL (≈ 53.8 mM). The MBC ([8]; agar plate 37° C., 24 hours) was 12.5 mg/mL (≈ 53.8 mM), the MIC ([9]; 37° C., 12 hours) was 12.5 mg/mL (≈ 53.8 mM) and the MBC ([9]; agar plate 37° C., 24 hours) was 12.5 mg/mL (≈ 53.8 mM). It also gave an MIC ([10]; 37° C., 12 hours) of 12.5 mg/mL (≈ 53.8 mM), an MBC ([10]; agar plate 37° C., 24 hours) of 25 mg/mL (≈ 108 mM) and an MIC ([11]; 37° C., 12 hours) of 6.25 mg/mL (≈ 26.9 mM). It also gave an MBC ([11]; agar plate 37° C., 24 hours) of 25 mg/mL (≈ 108 mM), an MIC ([12]; 37° C., 12 hours) of 6.25 mg/mL (≈ 26.9 mM) and an MBC ([12]; agar plate 37° C., 24 hours) of 12.5 mg/mL (≈ 53.8 mM). It also gave an MIC ([13]; 37° C., 12 hours) of 12.5 mg/mL (≈ 53.8 mM), an MBC ([13]; agar plate 37° C., 24 hours) of 25 mg/mL (≈ 108 mM) and an MIC ([14]; 37° C., 12 hours) of 1.56 mg/mL (≈ 6.73 mM). It also gave an MBC ([14]; agar plate 37° C., 24 hours, no bacterium grew) of 3.12 mg/mL (≈ 13.5 mM), an MIC ([15]; 37° C., 12 hours) of 12.5 mg/mL (≈ 53.8 mM) and an MBC ([15]; agar plate 37° C., 24 hours) of 50 mg/mL (≈ 215 mM). It also gave an MIC ([16]; 37° C., 12 hours) of 12.5 mg/mL (≈ 53.8 mM), an MBC ([16]; agar plate 37° C., 24 hours) of 25 mg/mL (≈ 108 mM) and an MIC ([17]; 37° C., 12 hours) of 12.5 mg/mL (≈ 53.8 mM). For the same molecule, the MBC ([17]; agar plate 37° C., 24 hours) was 12.5 mg/mL (≈ 53.8 mM), the MIC [18] was 6.25 mg/mL (≈ 26.9 mM) and the “time to kill all bacteria” value ([19]; 4 mg/mL of melatonin, added after 8 hours culture) was 10 h. The bactericidal effect ([19]; concentration higher than the MBC (4, 8, 10 mg/mL)) was “significant bactericidal effect in a dose-dependent manner” and the “time to kill all bacteria” value ([19]; higher concentration of melatonin (8, 10 mg/mL)) was 4 h.
